Assay results from US3962039A, “Analytical procedure for thyroid hormones” (Center for Laboratory Medicine, priority 1975, dated 1976).
Structures can show the parent of a compound that is named as a salt.

System: serum protein
Settings: pH 1.0, 30 minutes
Experimental: Contents of the tubes are set out in TABLE II below:
The four tubes were incubated at room temperature for 30 minutes. At the end of the incubation, 4.0 ml of sodium barbital buffer (0.075 M, pH 8.6) was added and mixed with the contents of each tube. The radioactivity of each tube was measured with a gammacounter.
Each of the tubes was then transferred to an Amicon ultrafiltration cone with a centrifuge tube attachment. The tubes were centrifuged for 45 minutes at 2,200 × g at room temperature. The entire ultrafiltrate was collected and the radioactivity counted.
a = radioactivity before ultrafiltration,
b = the radioactivity in the ultrafiltrate

Molecule	destruction of thyroxine binding sites of the serum proteins
Cl [HCl, Hydrochloric acid]	only partially destroy
pepsin	completely destroyed
